Results reported in US20100184758A1, “BETA CARBOLINE DERIVATIVES AS ANTIDIABETIC COMPOUNDS” (priority 2007, published 2010).

Tests used:
Assay type in all cases: in vivo, mouse
C57BL/6N mice [1] = assay: Glucose tolerance test in mice; conditions: wild type mice containing intact, functional SSTR3
Protocol: (§1) Male C57BL/6N mice (7-12 weeks of age) are housed 10 per cage and given access to normal diet rodent chow and water ad libitum. Mice are randomly assigned to treatment groups and fasted 4 to 6 h. Baseline blood glucose concentrations are determined by glucometer from tail nick blood. Animals are then treated orally with vehicle (0.25% methylcellulose) or test compound. Blood glucose concentration is measured at a set time point after treatment (t=0 min) and mice are then challenged with dextrose intraperitoneally- (2-3 g/kg) or orally (3-5 g/kg). One group of vehicle-treated mice is challenged with saline as a negative control. Blood glucose levels are determined from tail bleeds taken at 20, 40, 60 minutes after dextrose challenge. […] Percent inhibition values for each treatment are generated from the AUC data normalized to the saline-challenged controls. A similar assay may be performed in rats.

SSTR3 knock out mice = assay: Glucose tolerance test in SSTR3 gene knockout mice; conditions: oral dose in the range of 1 to 30 mg/kg po
Protocol: as §1
In order to assess the selectivity of blockade of SSTR3, compounds were evaluated in the oral glucose tolerance test (oGTT) described above in mice lacking the gene for a functional SSTR3.

C57BL/6N mice [2] = assay: Oral glucose tolerance test in mice, SSTR3 antagonist combined with DPP-4 inhibitor; conditions: suboptimal doses 0.001 to 0.1 mg/kg po with low doses of a DPP-4 inhibitor such as sitagliptin and des-fluoro-sitagliptin
Protocol: Compounds of the present invention were combined with dipeptidyl peptidase-IV (DPP-4) inhibitors in oral glucose tolerance test (oGTT) described above. Male C57BL/6N mice (7-12 weeks of age) were housed 10 per cage and given access to normal rodent chow and water ad libitum. Mice were randomly assigned to treatment groups and fasted 4 to 6 h. Baseline blood glucose concentrations were determined by glucometer from tail nick blood. […] Blood glucose concentration was measured at a set time point after treatment (t=0 min) and mice were then challenged with dextrose intraperitoneally (2-3 g/kg) or orally (3-5 g/kg). One group of vehicle-treated mice was challenged with saline as a negative control. Blood glucose levels were determined from tail bleeds taken at 20, 40, 60 min after dextrose challenge. […] Percent inhibition values for each treatment were generated from the AUC data normalized to the saline-challenged controls.

`Cc1nc(C2N[C@@H](c3nc(-c4ccc(F)cc4)c[nH]3)Cc3c2[nH]c2ccccc32)no1` (stereo partly drawn) [Example 17, (3R)-3-[4-(4-Fluorophenyl)-1H-imidazol-2-yl]-1-(5-methyl-1,2,4-oxadiazol-3-yl)-2,3,4,9-tetrahydro-1H-β-carboline] was tested, and the “inhibition of glucose excursion in oGTT” value (C57BL/6N mice [1]) was “inhibit glucose excursion” and the “inhibition of glucose excursion in oGTT” value (SSTR3 knock out mice) was “failed to significantly inhibit glucose excursion”.
In the case of `CCOCC1(c2cnn(C)c2)N[C@@H](c2nc(-c3ccc(F)cc3)c[nH]2)Cc2c1[nH]c1ccccc21` (stereo partly drawn) [Example 20, (3R)-[4-(4-Fluorophenyl)-1H-imidazol-2-yl]-1-(ethoxymethyl)-1-(1-methyl-1H-pyrazol-4-yl)-2,3,4,9-tetrahydro-1H-β-carboline], the “activity in oGTT in combination with a DPP-4 inhibitor versus alone” value (C57BL/6N mice [2]) is reported as “more active in combination with low doses of a DPP-4 inhibitor”, the “inhibition of glucose excursion in oGTT” value (C57BL/6N mice [1]) is reported as “inhibit glucose excursion” and the “inhibition of glucose excursion in oGTT” value (SSTR3 knock out mice) is reported as “failed to significantly inhibit glucose excursion”.
For `Cc1nc(C2(c3cnn(C)c3)N[C@@H](c3nc(-c4ccc(F)cc4)c[nH]3)Cc3c2[nH]c2ccccc32)no1` (stereo partly drawn) [Example 21, (3R)-[4-(4-Fluorophenyl)-1H-imidazol-2-yl]-1-(5-methyl-1,2,4-oxadiazol-3-yl)-1-(1-methyl-1H-pyrazol-4-yl)-2,3,4,9-tetrahydro-1H-β-carboline], the “inhibition of glucose excursion in oGTT” value (C57BL/6N mice [1]) was “inhibit glucose excursion”.
